# Results as given in patent US20230020342A1, “METHOD FOR PRODUCING POLYOL-BASED ESTERS, IN PARTICULAR POLYGLYCEROL ESTERS, FROM HYDROXY CARBOXYLIC ACIDS” (IOI Oleo GmbH, priority 2019, published 2023).
# Tested on: pancreatin (Panzytrat 40,000)
# Test: Cleavage experiments with pancreatin in water, followed by acid number
# Conditions: individual esters in pure form, 50° C.
# Protocol: The pancreatin is used in the form of the commercially available product Panzytrat® 40,000 from the Allergan company. The whole mixture is stirred on a hot plate at 50° C.; the course of the reaction is determined and monitored by continuously recording the acid number over time.
row,Substance,cleavage by pancreatin to free 3-hydroxybutyric acid (3-BHB-FS)
1,3-hydroxybutyric acid di-diglycerol ester,cleaved by pancreatin to the free 3-hydroxybutyric acid
2,3-hydroxybutyric acid mono-diglycerol ester,cleaved by pancreatin to the free 3-hydroxybutyric acid
3,3-hydroxybutyric acid tri-diglycerol ester,cleaved by pancreatin to the free 3-hydroxybutyric acid
